In US20230109839A1, “THERAPEUTIC AGENT FOR TAUOPATHIES” (SUMITOMO PHARMA CO., LTD., priority 2020, published 2023):

Biological target: T1, human Nav1.1 (Homo sapiens, UniProt P35498)
T1 construct: host or cells: HEK293
Test: Amplification of Nav1.1-derived voltage-gated sodium current (Nav1.1 current), automated patch clamp (Test 1)
Type: cell-based
Conditions: Concentration for evaluation 1 μM; HEK293 cell line stably expressing human Nav1.1
Description: Test 1: Evaluation of the Amplification of Nav1.1-Derived Voltage-Gated Sodium Current (Nav1.1 Current) by Using a Cell Line Stably Expressing Human Nav1.1
(1) Preparation of Test Compound Solution
Test compounds were prepared by dissolving in DMSO at 200 times of the concentration at evaluation, and diluting the obtained solution to twice the concentration of evaluation with an extracellular fluid (135 mmol/L NaCl, 4 mmol/L KCl, 1 mmol/L MgCl2, 5 mmol/L CaCl2, 5 mmol/L Glucose, 10 mmol/L HEPES).
(2) Induction and Measurement of Nav1.1 Current
A HEK293 cell line stably expressing human Nav1.1 (cat #CYL3009, Eurofins DiscoverX Products, LLC, Human Embryonic Kidney 293) was purchased, and used in the present test. Nav1.1 current was induced by stimulating Ramp wave voltage. Detection of current which accompanied with the stimulation of voltage was carried out by a patch-clamp voltage-clamp method using HTS automated patch clamp system (SynchroPatch 768PE, Nanion Technologies GmbH, Germany). Only cells with more than 500 pA of voltage-gated sodium channel current were used for the evaluation of the activity of compounds on Nav1.1 current because there was the possibility that currents derived from endogenous voltage-gated sodium channels accounted for large proportion in cells with less than 500 pA of voltage-gated sodium channel current which was induced by stimulating Ramp wave voltage.
(3) Pharmacological Effect on Nav1.1 Current
The effect of test compounds on the amplification of Nav1.1-derived voltage-gated sodium current was evaluated by using a cell line stably expressing human Nav1.1 and HTS automated patch clamp system. In other words, test compounds were added in an extracellular fluid containing 1% DMSO, and evaluated as a change of the peak value of Nav1.1 current and the area under the curve (AUC).
(4) Method for Pharmacological Evaluation
The Nav1.1 current amplification rates of test compounds were calculated by the following formula:
Nav1.1 current amplification rate (%)=100×[the peak value of Nav1.1 current or the area under the curve after the addition of test compounds]/[the peak value of Nav1.1 current or the area under the curve before the addition of test compounds]−100

SMILES | Nav1.1 current amplification rate (%)
CN(c1cnc2cnn(CC(=O)N3CCc4c(C5CC5)cccc43)c2n1)C1CC1 [Example 730] | 133
CN(c1cnc2cnn(CC(=O)Nc3ccc4ncnn4c3)c2n1)C1CC2(CC2)C1 [Example 666] | 64
O=C(Cn1ncc2cnc(N3CCC4(CCC4)C3)nc21)Nc1ccn2ncnc2c1 [Example 765] | 25
O=C(Cn1ncc2ncc(C3=CCC4(CC3)CC4(F)F)nc21)Nc1ccc2ncnn2c1 (stereo not shown) [Example 660] | 64
CN(c1cnc2cnn(CC(=O)N3CCc4c(-c5cnn(C)c5)cccc43)c2n1)C1CCC1 [Example 694] | 448
CN(CC1CC1)c1cnc2cnn(CC(=O)Nc3ccc4ncnn4c3)c2n1 [Example 663] | 13
CC1CC(N(C)c2cnc3cnn(CC(=O)Nc4ccn5ncnc5c4)c3n2)C1 (stereo not shown) [Example 635] | 76
CC(C1CC1)N(C)c1cnc2cnn(CC(=O)Nc3ccn4ncnc4c3)c2n1 (stereo not shown) [Example 633] | 15
CC(C)CCOc1ncc2cnn(CC(=O)Nc3ccn4ncnc4c3)c2n1 [Example 780] | 10

Now from value to compound:

Nav1.1 current amplification rate (%) | SMILES
27 | Cc1cn2ccc(NC(=O)Cn3ncc4ncc(N(C)C5CC5)nc43)cc2n1 [Example 703]
134 | CC1CC=C(c2ccc(=O)n(CC(=O)Nc3ccc(-n4ccnc4)nc3)n2)CC1 (stereo not shown) [Example 377]
19 | CC1CC=C(c2ccc(=O)n(CC(=O)N3CC=C(c4ccncc4)C3)n2)CC1 (stereo not shown) [Example 387]
96 | CC1CC=C(c2ccc(=O)n(CC(=O)Nc3ccc4nccn4n3)n2)CC1 (stereo not shown) [Example 346]
84 | CC1CC=C(c2ccc(=O)n(CC(=O)N3CCc4c(CNC5COC5)cccc43)n2)CC1 (stereo not shown) [Example 313]
393 | CC1CC=C(c2ccc(=O)n(CC(=O)N3CCc4c(N5CCOCC5)cccc43)n2)CC1 (stereo not shown) [Example 245]
241 | CC1CC=C(c2ccc(=O)n(CC(=O)Nc3ccn4cncc4c3)n2)CC1 (stereo not shown) [Example 338]

Same assay, conditions: Concentration for evaluation 3 μM; HEK293 cell line stably expressing human Nav1.1

SMILES | Nav1.1 current amplification rate (%)
Cc1cccc(F)c1Oc1ncc2cnn(CC(=O)Nc3ccn4ncnc4c3)c2n1 [Example 783] | 11
CN(c1cnc2cnn(CC(=O)N3CCN(c4cccnc4)CC3)c2n1)C1CCCC1 [Example 673] | 20

Next, values leading:

Nav1.1 current amplification rate (%) | SMILES
392 | CC1CC=C(c2ccc(=O)n(CC(=O)N3CCc4c(-c5cccnc5)cccc43)n2)CC1 (stereo not shown) [Example 248]
410 | CC1CC=C(c2ccc(=O)n(CC(=O)N3CCc4c(C5CN(C6COC6)C5)cccc43)n2)CC1 (stereo not shown) [Example 301]
25 | CC1CC=C(c2ccc(=O)n(CC(=O)Nc3ccc4oc(CN5CCC5)nc4c3)n2)CC1 (stereo not shown) [Example 333]

Same assay, conditions: Concentration for evaluation 10 μM; HEK293 cell line stably expressing human Nav1.1

SMILES | Nav1.1 current amplification rate (%)
COCOc1cccc2c1CCN2C(=O)Cn1nc(C2=CCC(C)(C)CC2)ccc1=O [Example 435] | 262
N#Cc1ccc(NC(=O)Cn2nc(N3CCC4(CCCC4)C3)ccc2=O)cc1 [Example 24] | 286
CN(c1cnc2cnn(CC(=O)Nc3cc4ccccc4nn3)c2n1)C1CC1 [Example 727] | 71
Cc1ccc(-c2ccc(=O)n(CC(=O)N3CCc4cc(N5CCOCC5)ccc43)n2)cc1 [Example 158] | 122
CC1CCN(c2ccc(=O)n(CC(=O)Nc3ccc(C#N)nc3)n2)CC1 [Example 51] | 196
CN(c1cnc2cnn(CC(=O)Nc3ccc4ncccc4n3)c2n1)C1CC1 [Example 725] | 51

Continued, values first:

Nav1.1 current amplification rate (%) | SMILES
93 | CC1CCN(c2ccc(=O)n(CC(=O)Nc3cccc(-c4cnco4)c3)n2)CC1 [Example 77]
11 | N#Cc1ccc(NC(=O)Cn2nc(C3CCC(F)(F)CC3)ccc2=O)cc1 [Example 47]
15 | Cc1nccn1-c1cccc(NC(=O)Cn2nc(N3CCC(C)CC3)ccc2=O)c1 [Example 75]
37 | CC1CC=C(c2ccc(=O)n(CC(=O)N3CC=C(c4ccccc4)C3)n2)CC1 (stereo not shown) [Example 388]
11 | COC1CCN(c2ccc(=O)n(CC(=O)Nc3ccc(C#N)cc3)n2)CC1 [Example 9]
238 | COc1ncc(C2=CCN(C(=O)Cn3nc(C4=CCC(C)CC4)ccc3=O)CC2)cn1 (stereo not shown) [Example 400]
73 | CC1CCN(c2ccc(=O)n(CC(=O)Nc3ccc4c(c3)NC(=O)C4)n2)CC1 [Example 86]
287 | Cc1nc2cc(NC(=O)Cn3nc(C4=CCC(C)CC4)ccc3=O)ccc2o1 (racemic) [Example 422]
136 | CC1CC=C(c2ccc(=O)n(CC(=O)N3CCc4cc(N5CCOCC5)ccc43)n2)CC1 (stereo not shown) [Example 246]
365 | COc1cc(=O)n(CC(=O)Nc2ccc3ocnc3c2)nc1C1=CCC(C)(C)CC1 [Example 451]
130 | CC1(C)CCN(c2ccc(=O)n(CC(=O)Nc3ccc(C#N)cc3)n2)C1 [Example 21]
131 | Cc1ccc(-c2ccc(=O)n(CC(=O)Nc3ccc4ocnc4c3)n2)s1 [Example 455]

Same assay, conditions: Concentration for evaluation 50 μM; HEK293 cell line stably expressing human Nav1.1

Nav1.1 current amplification rate (%) | SMILES
14 | COc1cccc(F)c1-c1ncc2cnn(CC(=O)Nc3ccn4ncnc4c3)c2n1 [Example 791]
42 | CC1CC=C(c2ccc(=O)n(CC(=O)N3CC=C(c4ccccn4)C3)n2)CC1 (stereo not shown) [Example 385]
126 | CC1CC=C(c2ccc(=O)n(CC(=O)N3CC=C(c4cccnc4)C3)n2)CC1 (stereo not shown) [Example 386]

Same assay, conditions: HEK293, Concentration for evaluation 1 μM; HEK293 cell line stably expressing human Nav1.1; read-out: Nav1.1 current amplification rate (%)

activation at 1 µM [%] | SMILES
43 | Cc1cc(NC(=O)Cn2ncc3ncc(N(C)CC4CC4)nc32)cc2ncnn12 [Example 745]

Same assay, conditions: HEK293, Concentration for evaluation 10 μM; HEK293 cell line stably expressing human Nav1.1; read-out: Nav1.1 current amplification rate (%)

activation at 10 µM [%] | SMILES
12 | N#Cc1ccc(NC(=O)Cn2nc(N3CCCCC3)ccc2=O)cn1 [Example 110]

Same assay, conditions: HEK293, concentration for evaluation 1 μM; HEK293 stably expressing human Nav1.1; read-out: Nav1.1 current amplification rate (%)

activation at 1 µM [%] | SMILES
128 | CC1CCN(c2ncc3cnn(CC(=O)Nc4ccn5ccnc5c4)c3n2)CC1 [Example 831]
164 | CC1CC=C(c2ccc3cnn(CC(=O)Nc4ccc5ocnc5c4)c3n2)CC1 (stereo not shown) [Example 883]

Same assay, conditions: concentration for evaluation 1 μM; HEK293 stably expressing human Nav1.1

SMILES | Nav1.1 current amplification rate (%)
CN(c1ccc2cnn(CC(=O)Nc3ccn4ncnc4c3)c2n1)C1CCCC1 [Example 862] | 97
O=C(Cn1ncc2cnc(N3CCC4C(C3)C4(F)F)nc21)Nc1ccc2ncnn2c1 (stereo not shown) [Example 816] | 13
O=C(Cn1ncc2cnc(N3CCC4(CCC4)C3)nc21)Nc1ccc2cncnc2c1 [Example 807] | 86

The remaining lines, values ahead:

Nav1.1 current amplification rate (%) | SMILES
241 | CC1CC=C(c2cnc3cnn(CC(=O)Nc4ccn5ncnc5c4)c3n2)CC1 (stereo not shown) [Example 896, 2-[6-(4-methylcyclohex-1-en-1-yl)-1H-pyrazolo[3,4-b]pyrazin-1-yl]-N-([1,2,4]triazolo[1,5-a]pyridin-7-yl)acetamide]
263 | CC1CCN(c2ccc3cnn(CC(=O)Nc4ccc5cncnc5c4)c3n2)CC1 [Example 877]

Same assay, conditions: concentration for evaluation 50 μM; HEK293 stably expressing human Nav1.1

Nav1.1 current amplification rate (%) | SMILES
16 | CC1CCN(c2ccc3cnn(CC(=O)Nc4ccc(C(F)(F)F)nc4)c3n2)CC1 [Example 879]
